# According to EP4438030A1, “TERNARY ANTI-SPOT COMBINATION TO LIGHTEN SKIN” (E Grau Active Cosmetics, S.L.U., priority 2023, dated 2024):
# Tested on: Normal human epidermal melanocytes
# Conditions: melanocytes irradiated with ultraviolet light (2.5 J/cm2), 96 hours; mixture 0.0003% hydroxytyrosol, 0.00001% maslinic acid, 0.001% vitamin C (w/w); hydroquinone 10-8% (w/w)
# Method: Normal human epidermal melanocytes were cultured in 48-well plates at a density of 2×10^4 cells/well overnight in a CO2 incubator at 37°C in the culture medium called Melanocyte Growth Medium (PromoCell, R.F.A.). The culture medium was then removed and replaced with fresh medium, and the cells were cultured for 96 hours in the presence of a mixture containing 0.0003% (w/w) of hydroxytyrosol, 0.00001% (w/w) of maslinic acid and 0.001% (w/w) of vitamin C. […] To mimic exposure to sunlight, the cells were irradiated with ultraviolet light for the last 48 hours in 4 cycles lasting 15 minutes. Irradiation measurements indicated a total dose of 2.5 J/cm2. Melanin was extracted by adding 1 M sodium hydroxide and incubating at 60°C for 1 h.
# In parallel, a cell viability assay was carried out using 3-(4,5-dimethylthiazol-2-yl)-2,5-diphenyltetrazolium bromide dye (MTT Assay) to normalise melanin values to cell levels and thus correct possible interferences due to small variations in the number of cells in each well.
structure (smiles),measurement,value
Oc1ccc(O)cc1 [hydroquinone],reduction of melanin production,42%
